# From PubChem BioAssay AID248 (DTP/NCI, 2004)
# “And” between values parts separate entries of the source, which are not always exact repeats. Equal entries are not always repeated. Inconclusive results and toxic doses are left out.
# Test system: L1210 leukemia ip in BDF1 mice, survival T/C
# Experiment: NCI In Vivo Anticancer Drug Screen. Data for tumor model L1210 Leukemia (intraperitoneal) in B6D2F1 (BDF1) mice
# Settings: endpoint: mean survival time, higher = longer survival
# Outline: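 In this screen, tumor-bearing mice given compound are compared to those given vehicle, and their survival values are reported as a treated-to-control quotient.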
# [1] = dose: 100.0 mg/kg/injection, schedule: Q01DX001 (ip), vehicle: Klucel (hydroxypropylcellulose) (HPC)
# [2] = dose: 100.0 mg/kg/injection, schedule: Q01DX009 (ip), vehicle: Klucel (hydroxypropylcellulose) (HPC)
# [3] = dose: 100.0 mg/kg/injection, schedule: Q04DX003 (ip), vehicle: Klucel (hydroxypropylcellulose) (HPC)
# [4] = dose: 200.0 mg/kg/injection, schedule: Q01DX001 (ip), vehicle: Klucel (hydroxypropylcellulose) (HPC)
# [5] = dose: 200.0 mg/kg/injection, schedule: Q01DX009 (ip), vehicle: Klucel (hydroxypropylcellulose) (HPC)
# [6] = dose: 200.0 mg/kg/injection, schedule: Q04DX003 (ip), vehicle: Klucel (hydroxypropylcellulose) (HPC)
# [7] = dose: 400.0 mg/kg/injection, schedule: Q01DX001 (ip), vehicle: Klucel (hydroxypropylcellulose) (HPC)
# [8] = dose: 400.0 mg/kg/injection, schedule: Q04DX003 (ip), vehicle: Klucel (hydroxypropylcellulose) (HPC)
# [9] = dose: 100.0 mg/kg/injection, schedule: Q01DX001 (ip), vehicle: saline
# [10] = dose: 200.0 mg/kg/injection, schedule: Q01DX001 (ip), vehicle: saline
# [11] = dose: 400.0 mg/kg/injection, schedule: Q01DX001 (ip), vehicle: saline
# [12] = dose: 100.0 mg/kg/injection, schedule: Q04DX002 (ip), vehicle: Klucel (hydroxypropylcellulose) (HPC)
# [13] = dose: 200.0 mg/kg/injection, schedule: Q04DX002 (ip), vehicle: Klucel (hydroxypropylcellulose) (HPC)
# [14] = dose: 400.0 mg/kg/injection, schedule: Q04DX002 (ip), vehicle: Klucel (hydroxypropylcellulose) (HPC)
# [15] = dose: 400.0 mg/kg/injection, schedule: Q01DX009 (ip), vehicle: Klucel (hydroxypropylcellulose) (HPC)
# [16] = dose: 25.0 mg/kg/injection, schedule: Q01DX009 (ip), vehicle: saline
# [17] = dose: 50.0 mg/kg/injection, schedule: Q01DX009 (ip), vehicle: saline
# [18] = dose: 50.0 mg/kg/injection, schedule: Q04DX002 (ip), vehicle: Klucel (hydroxypropylcellulose) (HPC)
structure (smiles),measurement,setting,value
O=C(NC(=O)C(Cl)Cl)Nc1cccc2c1-c1ccccc1C2,T/C,[1],94 % of control
same,T/C,[2],108 % of control
same,T/C,[3],88 % of control
same,T/C,[4],97 % of control
same,T/C,[5],100 % of control
same,T/C,[6],92 % of control
same,T/C,[7],92 % of control
same,T/C,[8],93 % of control
COC1C=CC(OC)(C(OC)OC)O1 (centres undefined),T/C,[9],104 % of control
same,T/C,[10],101 % of control
same,T/C,[11],98 % of control
CCC1([N+](=O)[O-])COP(=O)(OC(=O)c2ccccc2)OC1 (centres undefined),T/C,[9],100 % of control
same,T/C,[10],108 % of control
same,T/C,[11],97 % of control
C=CCCCCCCCCC(=O)Nc1ccc(Cl)cc1C(=O)c1ccccc1,T/C,[12],95 % of control
same,T/C,[13],92 % of control
same,T/C,[14],89 % of control
COc1cc2c(cc1OC)N(S(=O)(=O)c1ccc(C)cc1)CCCC2=O,T/C,[2],96 % of control
same,T/C,[3],96 % of control
same,T/C,[5],91 % of control
same,T/C,[6],93 % of control
same,T/C,[15],93 % of control
same,T/C,[8],102 % of control
CCOC(=O)C(Cc1ccccc1)NC(=O)N(CCCl)CCCl (centres undefined),T/C,"dose: 62.5 mg/kg/injection, schedule: Q01DX Z (ip), vehicle: water",97 % of control
same,T/C,"dose: 125.0 mg/kg/injection, schedule: Q01DX Z (ip), vehicle: water",95 % of control
same,T/C,"dose: 250.0 mg/kg/injection, schedule: Q01DX Z (ip), vehicle: water",106 % of control
COc1c(NC(=O)Nc2ccccc2Cl)cccc1[N+](=O)[O-],T/C,"dose: 400.0 mg/kg/injection, schedule: Q04DX002 (ip), vehicle: saline with Tween-80",90 % of control
Nc1ncnc2c1c1c(N)[nH]nc1n2C1OC(CO)C(O)C1O (centres undefined),T/C,"dose: 12.5 mg/kg/injection, schedule: Q01DX009 (ip), vehicle: saline",114 % of control
same,T/C,[16],121 % of control
same,T/C,[17],150 % of control
same,T/C,[9],104 % of control
same,T/C,[10],106 % of control
same,T/C,[11],121 % of control
Cc1c2oc3c(C)ccc(C(=O)NC4C(=O)NC(C(C)C)C(=O)N5CCCC5C(=O)N(C)CC(=O)N(C)C(C(C)C)C(=O)OC4C)c3nc-2c(C(=O)NC2C(=O)NC(C(C)C)C(=O)N3CCCC3C(=O)N(C)CC(=O)N(C)C(C(C)C)C(=O)OC2C)c(NCCCO)c1=O (centres undefined),T/C,"dose: 0.07 mg/kg/injection, schedule: Q04DX003 (ip), vehicle: saline + alcohol",95 % of control
same,T/C,"dose: 0.1 mg/kg/injection, schedule: Q01DX009 (ip), vehicle: saline + alcohol",116 % of control
same,T/C,"dose: 0.15 mg/kg/injection, schedule: Q04DX003 (ip), vehicle: saline + alcohol",107 % of control
same,T/C,"dose: 0.2 mg/kg/injection, schedule: Q01DX001 (ip), vehicle: saline + alcohol",106 % of control
same,T/C,"dose: 0.3 mg/kg/injection, schedule: Q04DX003 (ip), vehicle: saline + alcohol",108 % of control
same,T/C,"dose: 0.4 mg/kg/injection, schedule: Q01DX001 (ip), vehicle: saline + alcohol",107 % of control
same,T/C,"dose: 0.6 mg/kg/injection, schedule: Q04DX003 (ip), vehicle: saline + alcohol",114 % of control
same,T/C,"dose: 0.62 mg/kg/injection, schedule: Q04DX003 (ip), vehicle: saline + alcohol",111 % of control
same,T/C,"dose: 0.8 mg/kg/injection, schedule: Q01DX001 (ip), vehicle: saline + alcohol",103 % of control
same,T/C,"dose: 1.0 mg/kg/injection, schedule: Q01DX001 (ip), vehicle: saline + alcohol",112 % of control
same,T/C,"dose: 1.25 mg/kg/injection, schedule: Q04DX003 (ip), vehicle: saline + alcohol",121 % of control
same,T/C,"dose: 1.6 mg/kg/injection, schedule: Q01DX001 (ip), vehicle: saline + alcohol",95 % of control
same,T/C,"dose: 2.0 mg/kg/injection, schedule: Q01DX001 (ip), vehicle: saline + alcohol",121 % of control
same,T/C,"dose: 3.2 mg/kg/injection, schedule: Q01DX001 (ip), vehicle: saline + alcohol",104 % of control
same,T/C,"dose: 4.0 mg/kg/injection, schedule: Q01DX001 (ip), vehicle: saline + alcohol",121 % of control
same,T/C,"dose: 5.0 mg/kg/injection, schedule: Q04DX003 (ip), vehicle: saline + alcohol",160 % of control
same,T/C,"dose: 12.5 micrograms/kg/injection, schedule: Q01DX009 (ip), vehicle: saline + alcohol",101 % of control and 116 % of control
same,T/C,"dose: 25.0 micrograms/kg/injection, schedule: Q01DX009 (ip), vehicle: saline + alcohol",98 % of control
same,T/C,"dose: 50.0 micrograms/kg/injection, schedule: Q01DX009 (ip), vehicle: saline + alcohol",106 % of control
CCCN(CCC)CCNCC(Cc1ccccc1)c1ccccc1 (centres undefined),T/C,[18],99 % of control
same,T/C,[12],99 % of control
O=C(Nc1ccccc1)OCCOc1ccc(Cl)cc1,T/C,[12],88 % of control
same,T/C,[13],95 % of control
same,T/C,[14],95 % of control
CCOC(=O)c1cc2nc(C(C)C)n(Cc3ccccc3)c2cc(C(=O)OCC)c1=O,T/C,[1],96 % of control
same,T/C,[2],104 % of control and 89 % of control
same,T/C,[12],98 % of control and 105 % of control
same,T/C,[3],97 % of control
same,T/C,[4],91 % of control
same,T/C,[5],97 % of control and 89 % of control
same,T/C,[13],96 % of control
same,T/C,[6],100 % of control
same,T/C,[7],100 % of control
same,T/C,[15],98 % of control
same,T/C,[14],88 % of control and 89 % of control
same,T/C,[8],100 % of control
NC(=O)c1cn[nH]c1/N=N/N1CCCC1C(=O)O (centres undefined),T/C,"dose: 100.0 mg/kg/injection, schedule: Q01DX001 (ip), vehicle: saline with Tween-80",100 % of control
same,T/C,"dose: 100.0 mg/kg/injection, schedule: Q01DX009 (ip), vehicle: saline with Tween-80",111 % of control
same,T/C,"dose: 100.0 mg/kg/injection, schedule: Q04DX003 (ip), vehicle: saline with Tween-80",104 % of control
same,T/C,"dose: 200.0 mg/kg/injection, schedule: Q01DX001 (ip), vehicle: saline with Tween-80",107 % of control
same,T/C,"dose: 200.0 mg/kg/injection, schedule: Q01DX009 (ip), vehicle: saline with Tween-80",97 % of control
same,T/C,"dose: 200.0 mg/kg/injection, schedule: Q04DX003 (ip), vehicle: saline with Tween-80",104 % of control
same,T/C,"dose: 400.0 mg/kg/injection, schedule: Q01DX001 (ip), vehicle: saline with Tween-80",102 % of control
same,T/C,"dose: 400.0 mg/kg/injection, schedule: Q01DX009 (ip), vehicle: saline with Tween-80",94 % of control
same,T/C,"dose: 400.0 mg/kg/injection, schedule: Q04DX003 (ip), vehicle: saline with Tween-80",106 % of control
CC1(C)OC2COC(c3[nH]nc4c(=O)[nH][nH]c(=O)c34)C2O1 (centres undefined),T/C,"dose: 100.0 mg/kg/injection, schedule: Q01DX005 (ip), vehicle: saline",103 % of control
same,T/C,"dose: 200.0 mg/kg/injection, schedule: Q01DX005 (ip), vehicle: saline",106 % of control
COC(=O)c1c(C(=O)O)coc1C(=O)N1CCCC1,T/C,"dose: 75.0 mg/kg/injection, schedule: Q04DX003 (ip), vehicle: Klucel (hydroxypropylcellulose) (HPC)",105 % of control
same,T/C,[1],100 % of control
same,T/C,"dose: 150.0 mg/kg/injection, schedule: Q04DX003 (ip), vehicle: Klucel (hydroxypropylcellulose) (HPC)",89 % of control
same,T/C,[4],97 % of control
same,T/C,"dose: 300.0 mg/kg/injection, schedule: Q04DX003 (ip), vehicle: Klucel (hydroxypropylcellulose) (HPC)",91 % of control
same,T/C,[7],105 % of control
O=[N+]([O-])c1cc2ccccc2o1,T/C,[18],88 % of control
same,T/C,[12],97 % of control
same,T/C,[13],93 % of control
COC1(c2ccccc2)CN(Cc2ccccc2)CCO1 (centres undefined),T/C,[2],95 % of control
same,T/C,[5],98 % of control
O=[N+]([O-])c1cc(/C=N/N2CCN(/N=C/c3ccc(Cl)c([N+](=O)[O-])c3)CC2)ccc1Cl,T/C,[9],96 % of control
same,T/C,[10],93 % of control
same,T/C,[11],90 % of control
C=C(C)[C@@H]1CC[C@@H](C)C[C@H]1O,T/C,[9],103 % of control
same,T/C,[10],100 % of control
same,T/C,[11],105 % of control
COCc1nnc2ncnc(OC)c2n1,T/C,[16],106 % of control
same,T/C,"dose: 25.0 mg/kg/injection, schedule: Q04DX003 (ip), vehicle: saline",100 % of control
same,T/C,[17],93 % of control
same,T/C,"dose: 50.0 mg/kg/injection, schedule: Q04DX003 (ip), vehicle: saline",102 % of control
same,T/C,[9],98 % of control
same,T/C,"dose: 100.0 mg/kg/injection, schedule: Q01DX009 (ip), vehicle: saline",88 % of control
same,T/C,"dose: 100.0 mg/kg/injection, schedule: Q04DX003 (ip), vehicle: saline",98 % of control
